Measurements from the NIST ThermoML archive (doi:10.1021/je900210h).
Several values for one entry are separate records, joined by “and”; a condition that tells them apart may be missing. Identical values can stand only once.

Conditions: Fluid (supercritical or subcritical phases), Coaxial cylinder method

FCC(F)(F)F [1,1,1,2-tetrafluoroethane]
Conditions | thermal conductivity
299.29 K, 170 kPa | 0.01287 W/m/K
299.63 K, 170 kPa | 0.01279 W/m/K
318.97 K, 740 kPa | 0.01489 W/m/K and 0.01486 W/m/K
319.14 K, 160 kPa | 0.0146 W/m/K
345.58 K, 180 kPa | 0.01711 W/m/K
346.36 K, 180 kPa | 0.01739 W/m/K
348.54 K, 180 kPa | 0.01732 W/m/K
351.84 K, 640 kPa | 0.01763 W/m/K
363.88 K, 180 kPa | 0.01891 W/m/K
365 K, 180 kPa | 0.01891 W/m/K
365.41 K, 180 kPa | 0.01893 W/m/K
365.69 K, 180 kPa | 0.01893 W/m/K
366.52 K, 180 kPa | 0.01892 W/m/K
366.8 K, 180 kPa | 0.01893 W/m/K
372.42 K, 680 kPa | 0.01975 W/m/K
372.43 K, 170 kPa | 0.01968 W/m/K
372.43 K, 680 kPa | 0.01965 W/m/K
374.18 K, 4090 kPa | 0.0729 W/m/K
374.19 K, 4100 kPa | 0.0708 W/m/K
374.21 K, 4120 kPa | 0.068 W/m/K
374.22 K, 4142 kPa | 0.0659 W/m/K
374.22 K, 4149 kPa | 0.0654 W/m/K
374.23 K, 4187 kPa | 0.0642 W/m/K
374.28 K, 4085 kPa | 0.141 W/m/K
374.31 K, 4090 kPa | 0.1233 W/m/K
374.32 K, 4093 kPa | 0.1139 W/m/K
374.34 K, 4097 kPa | 0.1057 W/m/K
374.36 K, 4100 kPa | 0.0993 W/m/K
374.37 K, 4073 kPa | 0.1974 W/m/K
374.37 K, 4074 kPa | 0.1974 W/m/K
374.37 K, 4245 kPa | 0.0643 W/m/K
374.37 K, 4270 kPa | 0.0643 W/m/K
374.37 K, 4358 kPa | 0.0641 W/m/K
374.38 K, 4078 kPa | 0.1828 W/m/K
374.38 K, 4083 kPa | 0.1742 W/m/K
374.38 K, 4105 kPa | 0.0914 W/m/K
374.39 K, 4070 kPa | 0.1644 W/m/K
374.4 K, 4110 kPa | 0.0851 W/m/K
374.47 K, 4071 kPa | 0.1096 W/m/K
374.5 K, 4533 kPa | 0.0637 W/m/K
374.51 K, 4621 kPa | 0.0635 W/m/K
374.52 K, 4710 kPa | 0.0617 W/m/K
374.52 K, 4759 kPa | 0.061 W/m/K
374.54 K, 4072 kPa | 0.0831 W/m/K
374.57 K, 4073 kPa | 0.0764 W/m/K
374.61 K, 4068 kPa | 0.0674 W/m/K
374.66 K, 4063 kPa | 0.0593 W/m/K
374.72 K, 4049 kPa | 0.0529 W/m/K
374.76 K, 3717 kPa | 0.0352 W/m/K
374.89 K, 4035 kPa | 0.0494 W/m/K
374.92 K, 3675 kPa | 0.0342 W/m/K
374.96 K, 4117 kPa | 0.1232 W/m/K
374.96 K, 4119 kPa | 0.1244 W/m/K
374.96 K, 4126 kPa | 0.1244 W/m/K
374.97 K, 4112 kPa | 0.1176 W/m/K
374.97 K, 4132 kPa | 0.1198 W/m/K
374.99 K, 4107 kPa | 0.1106 W/m/K
374.99 K, 10033 kPa | 0.064 W/m/K
375 K, 4149 kPa | 0.101 W/m/K
375.01 K, 8053 kPa | 0.0615 W/m/K
375.03 K, 4099 kPa | 0.091 W/m/K
375.03 K, 4155 kPa | 0.091 W/m/K
375.03 K, 6045 kPa | 0.0576 W/m/K
375.04 K, 888 kPa | 0.0235 W/m/K
375.04 K, 4160 kPa | 0.0861 W/m/K
375.06 K, 4168 kPa | 0.0796 W/m/K
375.07 K, 4097 kPa | 0.0773 W/m/K
375.1 K, 3544 kPa | 0.0321 W/m/K
375.1 K, 3981 kPa | 0.0428 W/m/K
375.1 K, 4185 kPa | 0.0704 W/m/K
375.11 K, 4099 kPa | 0.0671 W/m/K
375.13 K, 4199 kPa | 0.0643 W/m/K
375.14 K, 3928 kPa | 0.0409 W/m/K
375.14 K, 4132 kPa | 0.1072 W/m/K
375.14 K, 4134 kPa | 0.108 W/m/K
375.14 K, 4136 kPa | 0.108 W/m/K
375.14 K, 4138 kPa | 0.108 W/m/K
375.14 K, 4140 kPa | 0.108 W/m/K
375.14 K, 4142 kPa | 0.1072 W/m/K
375.14 K, 4144 kPa | 0.1063 W/m/K
375.14 K, 4216 kPa | 0.0612 W/m/K
375.15 K, 4130 kPa | 0.1055 W/m/K
375.15 K, 4146 kPa | 0.1047 W/m/K
375.15 K, 4148 kPa | 0.1024 W/m/K
375.16 K, 4150 kPa | 0.1009 W/m/K
375.16 K, 4153 kPa | 0.0988 W/m/K
375.16 K, 4244 kPa | 0.0586 W/m/K
375.17 K, 4157 kPa | 0.0941 W/m/K
375.17 K, 4289 kPa | 0.0565 W/m/K
375.18 K, 4030 kPa | 0.0479 W/m/K
375.18 K, 4160 kPa | 0.0916 W/m/K
375.18 K, 4340 kPa | 0.055 W/m/K
375.18 K, 4942 kPa | 0.0559 W/m/K
375.18 K, 5054 kPa | 0.0557 W/m/K
375.18 K, 5057 kPa | 0.055 W/m/K
375.19 K, 4163 kPa | 0.0881 W/m/K
375.19 K, 4379 kPa | 0.0546 W/m/K
375.19 K, 4458 kPa | 0.0541 W/m/K
375.19 K, 4551 kPa | 0.0545 W/m/K
375.19 K, 4557 kPa | 0.0538 W/m/K
375.2 K, 4166 kPa | 0.0849 W/m/K
375.2 K, 4456 kPa | 0.053 W/m/K
375.21 K, 4170 kPa | 0.0823 W/m/K
375.21 K, 4171 kPa | 0.0814 W/m/K
375.23 K, 4178 kPa | 0.0777 W/m/K
375.23 K, 4181 kPa | 0.076 W/m/K
375.24 K, 4120 kPa | 0.1016 W/m/K
375.24 K, 4189 kPa | 0.0731 W/m/K
375.28 K, 4145 kPa | 0.0986 W/m/K
375.28 K, 4150 kPa | 0.1002 W/m/K
375.28 K, 4156 kPa | 0.1002 W/m/K
375.28 K, 4162 kPa | 0.0994 W/m/K
375.28 K, 4167 kPa | 0.0984 W/m/K
375.28 K, 4208 kPa | 0.0667 W/m/K
375.29 K, 4139 kPa | 0.0943 W/m/K
375.29 K, 4174 kPa | 0.0955 W/m/K
375.3 K, 4089 kPa | 0.0573 W/m/K
375.3 K, 4181 kPa | 0.0927 W/m/K
375.3 K, 4229 kPa | 0.0627 W/m/K
375.31 K, 4189 kPa | 0.0889 W/m/K
375.31 K, 4254 kPa | 0.0613 W/m/K
375.31 K, 4265 kPa | 0.061 W/m/K
375.31 K, 4294 kPa | 0.0605 W/m/K
375.31 K, 4307 kPa | 0.0603 W/m/K
375.31 K, 4341 kPa | 0.06 W/m/K
375.32 K, 4130 kPa | 0.0916 W/m/K
375.32 K, 4134 kPa | 0.0856 W/m/K
375.32 K, 4197 kPa | 0.0848 W/m/K
375.32 K, 4389 kPa | 0.0592 W/m/K
375.32 K, 4450 kPa | 0.0585 W/m/K
375.32 K, 4490 kPa | 0.0588 W/m/K
375.33 K, 4129 kPa | 0.087 W/m/K
375.33 K, 4204 kPa | 0.0816 W/m/K
375.34 K, 3828 kPa | 0.0367 W/m/K
375.34 K, 4085 kPa | 0.0517 W/m/K
375.34 K, 4126 kPa | 0.0773 W/m/K
375.36 K, 4121 kPa | 0.0721 W/m/K
375.36 K, 4216 kPa | 0.0746 W/m/K
375.37 K, 4128 kPa | 0.0763 W/m/K
375.38 K, 4225 kPa | 0.0686 W/m/K
375.39 K, 4235 kPa | 0.0668 W/m/K
375.4 K, 4126 kPa | 0.0683 W/m/K
375.4 K, 4244 kPa | 0.0645 W/m/K
375.42 K, 3349 kPa | 0.0298 W/m/K
375.42 K, 4115 kPa | 0.0611 W/m/K
375.42 K, 4265 kPa | 0.0608 W/m/K
375.43 K, 4051 kPa | 0.0425 W/m/K
375.43 K, 4280 kPa | 0.0596 W/m/K
375.43 K, 4292 kPa | 0.0588 W/m/K
375.45 K, 4349 kPa | 0.0567 W/m/K
375.46 K, 4029 kPa | 0.0397 W/m/K
375.46 K, 4107 kPa | 0.0545 W/m/K
375.46 K, 4118 kPa | 0.0591 W/m/K
375.46 K, 4473 kPa | 0.0555 W/m/K
375.46 K, 4527 kPa | 0.055 W/m/K
375.46 K, 4625 kPa | 0.055 W/m/K
375.46 K, 4681 kPa | 0.0552 W/m/K
375.46 K, 4735 kPa | 0.0582 W/m/K
375.48 K, 4848 kPa | 0.0566 W/m/K
375.49 K, 4097 kPa | 0.0508 W/m/K
375.51 K, 4107 kPa | 0.0521 W/m/K
375.52 K, 4086 kPa | 0.0475 W/m/K
375.53 K, 4097 kPa | 0.0492 W/m/K
375.56 K, 4055 kPa | 0.0434 W/m/K
375.58 K, 4040 kPa | 0.0421 W/m/K
375.59 K, 3196 kPa | 0.0287 W/m/K
375.6 K, 4065 kPa | 0.0432 W/m/K
375.61 K, 3999 kPa | 0.0395 W/m/K
375.61 K, 4059 kPa | 0.0425 W/m/K
375.63 K, 3965 kPa | 0.0378 W/m/K
375.65 K, 4023 kPa | 0.0393 W/m/K
375.66 K, 3917 kPa | 0.0361 W/m/K
375.69 K, 3874 kPa | 0.0343 W/m/K
375.72 K, 4178 kPa | 0.0857 W/m/K
375.72 K, 4187 kPa | 0.0881 W/m/K
375.73 K, 3772 kPa | 0.0319 W/m/K
375.73 K, 4179 kPa | 0.083 W/m/K
375.73 K, 4199 kPa | 0.0841 W/m/K
375.74 K, 4210 kPa | 0.0799 W/m/K
375.76 K, 3000 kPa | 0.0274 W/m/K
375.76 K, 3658 kPa | 0.0306 W/m/K
375.76 K, 4161 kPa | 0.0752 W/m/K
